According to US12485132B2, “GPX4 inhibitors and senolytic compounds and uses thereof” (Rubedo Life Sciences, Inc., priority 2023, dated 2025):

How the values were obtained:
senescent HEPG2 cells = assay: Senescence assay: viability of senescent HEPG2 cells; format: cell-based; conditions: Homo sapiens, 24-72 hours incubation, viability by CellTiter-Glo or XTT, read-out: Absolute IC50 average HEPG2_SEN IC50
Summary of the method: (§1)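 A549 and HEPG2 cells made senescent by sublethal chemotherapy (bleomycin, gemcitabine, doxorubicin or 5-fluorouridine) plus recovery, verified by low EdU and high SA-β-Gal. Ten-point duplicate dosing for 24-72 h; viability by CellTiter-Glo or XTT versus untreated cells; absolute IC50 from four-parameter Hill fit.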

senescent A549 cells = assay: Senescence assay: viability of senescent A549 cells; format: cell-based; conditions: Homo sapiens, 24-72 hours incubation, viability by CellTiter-Glo or XTT, read-out: Absolute IC50 average A549_SEN IC50
Summary of the method: as §1

GPX4 [1] = target: T1, GPX4 (Mus musculus, UniProt O70325); assay: Electrophoretic gel mobility shift of GPX4 in skin of treated mice (target engagement); format: in vivo; conditions: skin of BALB/c mice exposed to mitomycin C; 24 hr treatment
T1 construct: tissue Charles River Laboratories; host or cells: skin of BALB/c mice
Procedure: An electrophoretic gel mobility shift assay of GPX4 was applied to determine the level of target engagement of compound 32 as a direct biomarker in tissues. For example, target engagement of compound 32 was assessed in the skin of mice exposed to mitomycin C, a potent inducer of cellular senescence. Following 24 hr treatment with compound 32, the skin of treated BALB/c mice (Charles River Laboratories) was collected and lysed by IGEPAL CA-630 and sodium dodecyl sulfate (SDS) in the presence of a protease inhibitor cocktail (4693132001, Roche) and benzonase (E1014, Sigma-Aldrich). The soluble protein fraction was isolated and heat-denatured in the presence of dithiothreitol (DTT). Proteins were electrophoretically separated using a Bis-Tris protein gel with 12% polyacrylamide concentration. Following the transfer of proteins to a PVDF membrane, the membrane was probed with an anti-GPX4 monoclonal antibody (ab125066, Abcam) and anti-beta-Actin (4970, Cell Signaling Technology), followed by an anti-rabbit IgG HRP conjugated antibody (31460, ThermoFisher). Chemiluminescent following HRP substrate addition (34580, ThermoFisher) was detected by the ChemiDoc XRS+System (BioRad).

GPX4 [2] = target: T2, GPX4 (Homo sapiens, UniProt P36969); assay: Competitive binding to GPX4 in A549 cells with biotinylated analog, streptavidin pull-down; format: cell-based; design: host or cells: A549; conditions: 2 μM for 2 hours before 2 μM compound 21 for 5 hours
T2 sequence (P36969 1-197): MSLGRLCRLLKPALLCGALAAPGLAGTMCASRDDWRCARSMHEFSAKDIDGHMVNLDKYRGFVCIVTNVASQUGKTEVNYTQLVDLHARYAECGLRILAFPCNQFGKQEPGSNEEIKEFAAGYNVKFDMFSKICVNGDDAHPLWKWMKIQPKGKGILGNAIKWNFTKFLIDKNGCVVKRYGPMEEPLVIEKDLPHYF
Procedure: Binding of compounds 32 and 69 to the target protein GPX4 in cultured cells can be assessed by the use of biotinylated analogs such as compound 21 that retain their cellular activities. Cells or tissue simultaneously or sequentially exposed to compounds 32 and 69 and biotinylated analog 21 can be analyzed for exogenous biotinylated proteins and thereby enables the identification of cellular targets of compounds 32 and 69. The A549 cancer cell line (ATCC) was exposed to 2 μM of compounds 32 and 69 for 2 hours followed by the addition of 2 μM of compound 21 for 5 hours. Cells were collected and lysed by IGEPAL CA-630 and sodium dodecyl sulfate (SDS) in the presence of a protease inhibitor cocktail (4693132001, Roche). The soluble protein fraction was isolated and incubated with Streptavidin Mag Sepharose (28-9857-38, Cytiva) at 4° C. for 16 hours. The streptavidin-unbound fraction was collected allowing for the quantification of the proportion of GPX4 depleted by the biotinylated compound 21 relative to samples not treated with Streptavidin Mag Sepharose. Furthermore, biotinylated proteins were eluted from Streptavidin Mag Sepharose by head-denaturation in the presence of excess biotin (5 mM). […] Chemiluminescent following HRP substrate addition (34580, ThermoFisher) was detected by the ChemiDoc XRS+ System (Bio-Rad). […]

T1 sequence (O70325 whole entry): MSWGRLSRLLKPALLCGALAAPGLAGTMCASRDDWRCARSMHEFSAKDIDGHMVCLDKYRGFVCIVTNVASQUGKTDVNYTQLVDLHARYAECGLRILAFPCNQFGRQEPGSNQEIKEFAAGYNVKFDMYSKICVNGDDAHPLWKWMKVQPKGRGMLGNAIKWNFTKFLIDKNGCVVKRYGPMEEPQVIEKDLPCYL

C#CC(F)(F)[C@]1(O)CC[C@H]2[C@@H]3CCC4=CC(=NNC(=O)NC5CC5)CCC4=C3[C@H](c3ccc(C4CC4)cc3)C[C@@]21C [Compound 32, N-cyclopropyl-2-((8S,11S,13S,14S,17S)-11-(4-cyclopropylphenyl)-17-(1,1-difluoroprop-2-yn-1-yl)-17-hydroxy-13-methyl-1,2,6,7,8,11,12,13,14,15,16,17-dodecahydro-3H-cyclopenta[a]phenanthren-3-ylidene)hydrazine-1-carboxamide] was tested, and the IC50 (senescent HEPG2 cells) was 0.1 to 10 nM, the IC50 (senescent A549 cells) was 0.1 to 10 nM and the “GPX4 band shift in skin (target engagement)” value (GPX4 [1]) was “slower migrating band for GPX4 was observed”. For the same molecule, the “effect of pre-treatment on compound 21 dependent depletion of GPX4 protein” value (GPX4 [2]) was “reduces the compound 21 dependent depletion of GPX4 protein”.
